Measured values reported in US7846950B2, “Histamine H3 receptor inhibitors, preparation and therapeutic uses” (Eli Lilly and Company, priority 2004, dated 2010).

Molecular target: T1, human histamine 3 receptor (Homo sapiens, UniProt Q9Y5N1)
T1 construct: expressed in transfected cells; membranes
Test: H3R binding assay (competitive inhibition SPA, [3H] alpha-methylhistamine, HEK293 H3R8 membranes)
Conditions: read-out: Human H3 Receptor Ki
Text: The compounds of the present invention can readily be evaluated by using a competitive inhibition Scintillation Proximity Assay (SPA) based on a H3R binding assay using [3H] α methylhistamine as ligand. Stable cell lines, including but not limited to HEK can be transfected with cDNA coding for H3R to prepare membranes used for the binding assay. The technique is illustrated below (Preparation of Histamine Receptor Subtype Membranes) for the histamine receptor subtypes.
cDNA for the human histamine 1 receptor (H1R) was cloned into a mammalian expression vector containing the CMV promoter (pcDNA3.1(+), Invitogen) and transfected into HEK293 cells using the FuGENE Tranfection Reagent (Roche Diagnostics Corporation). Transfected cells were selected using G418 (500 μ/mL). Colonies that survived selection were grown and tested for histamine binding to cells grown in 96-well dishes using a scintillation proximity assay (SPA) based radioligand binding assay. Briefly, cells, representing individual selected clones, were grown as confluent monolayers in 96-well dishes (Costar Clear Bottom Plates, #3632) by seeding wells with 25,000 cells and growing for 48 hours (37° C., 5% CO2). […] Plates were counted in a Wallac Trilux 1450 Microbeta scintillation counter. […]
cDNA for the human histamine 3 receptor was cloned and expressed as described in (A. Preparation H1R membranes), above. […]

T1 sequence (Q9Y5N1 whole entry): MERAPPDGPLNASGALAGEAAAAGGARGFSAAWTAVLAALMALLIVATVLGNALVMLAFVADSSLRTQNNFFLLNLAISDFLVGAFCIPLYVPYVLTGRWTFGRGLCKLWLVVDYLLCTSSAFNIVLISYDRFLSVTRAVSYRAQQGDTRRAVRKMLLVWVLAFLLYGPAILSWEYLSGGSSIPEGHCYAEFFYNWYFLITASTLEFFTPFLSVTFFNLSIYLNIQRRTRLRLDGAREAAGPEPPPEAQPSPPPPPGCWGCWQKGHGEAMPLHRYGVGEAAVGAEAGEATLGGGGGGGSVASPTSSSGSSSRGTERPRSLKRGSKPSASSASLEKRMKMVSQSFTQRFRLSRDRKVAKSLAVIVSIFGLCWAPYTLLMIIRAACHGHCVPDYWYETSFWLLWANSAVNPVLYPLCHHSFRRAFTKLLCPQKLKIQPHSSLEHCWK

Row | Ki | SMILES
1 | 1.8 nM | C[C@@H]1CCCN1C[C@@H]1CCCN1C(=O)c1ccc(OCc2ncon2)cc1F
2 | 6.2 nM | O=C(c1ccc(OCc2ccco2)cc1)N1CCC[C@H]1CN1CCCC1
